Measured values from patent publication US9487529B2, “Macrocyclic compounds as ALK, FAK and JAK2 inhibitors” (Cephalon, Inc., priority 2011, dated 2016).
Counter-ions that a name gives are not always drawn. Like-named read-outs stand apart in the source and are kept apart here.

Legend:
[1] = cc_pd bond, CH3CN, 120.0 °C
[2] = target: T1, recombinant human FAK (Homo sapiens, UniProt Q05397); experiment: FAK Enzyme Assay (TRF detection); type: biochemical; details: 10 μM ATP
T1 construct: purchased Invitrogen PV3832; host or cells: baculovirus expression system
Method: Example compounds were tested for their ability to inhibit the kinase activity of baculovirus-expressed recombinant human FAK using the TRF detection system as described above for JAK2. IC50 runs were performed in 96-well Costar high binding plates (#3922). The plates were coated first with 100 μL/well of 10 μg/mL neutravidin in TBS at 37° C. for 2 h, followed by 100 μL/well of 1 μg/mL 15-mer peptide substrate (biotinyl-amino-hexanoyl-EQEDEPEGDYFEWLE-amide) at 37° C. for another hour. The FAK assay mixture (total volume=100 μL/well) consisting of 20 mM HEPES, pH 7.2, 10 μM ATP, 5 mM MgCl2, 0.5 mM DTT, 0.1% BSA, and test compound (diluted in DMSO; 2.5% DMSO final in assay) was then added to the assay plate. Enzyme (10 ng/mL FAK, Invitrogen #PV3832) was added and the reaction was allowed to proceed at room temperature for 30 minutes. Detection of the phosphorylated product was performed by adding 100 μL/well of Eu—N1 labeled PY100 antibody (diluted 1:75000 in antibody dilution buffer). Samples were incubated at room temperature for 1 hour, followed by addition of 100 μL enhancement solution. Plates were agitated for 10 minutes and fluorescence of the resulting solution measured using the PerkinElmer EnVision™ 2102 (or 2104) multi-label plate reader.
(§1) Data analysis was performed using ActivityBase (IDBS, Guilford, UK). IC50 values were calculated by plotting percent inhibition versus log10 of the concentration of compound and fitting to the nonlinear regression sigmoidal dose-response (variable slope) equation in XLFit (IDBS, Guilford, UK).

[3] = target: T2, human insulin receptor cytoplasmic domain (βIRCD) (Homo sapiens, UniProt P06213); experiment: Insulin Receptor Kinase Assay (TRF); type: biochemical; details: 20 μM ATP, read-out: IR IC50
T2 construct: human insulin receptor cytoplasmic domain (βIRCD); host or cells: baculovirus expression system
Method: Example compounds were tested for their ability to inhibit the kinase activity of baculovirus-expressed human insulin receptor cytoplasmic domain (βIRCD) using the TRF assay as described above for ALK. Phosphorylation of the substrate, recombinant GST-PLC-γ, was detected with a europium-labeled anti-phosphotyrosine antibody and measured by TRF. Each 96-well plate (Greiner#655074) was coated with 100 μL/well of 20 μg/mL substrate solution in TBS. The IR assay mixture (total volume=100 μL/well) consisting of 20 mM HEPES (pH 7.2), 20 μM ATP, 5 mM MnCl2, 0.1% BSA, and test compound (diluted in DMSO; 2.5% DMSO final in assay) was added to the assay plates. Enzyme (20 ng/mL βIRCD) was added and the reaction was allowed to proceed at room temperature for 20 minutes. Detection of the phosphorylated product was performed by adding 100 μL/well of Eu—N1 labeled PY100 antibody (PerkinElmer#AD0160; diluted 1:10,000 in TBS-T containing 0.25% BSA). Incubation at 37° C. for 1 hour was followed by addition of 50 μL enhancement solution (Wallace#1244-105). Plates were agitated for 10 minutes and the fluorescence was measured using the PerkinElmer EnVision™ 2102 or 2104 multi-label plate reader.
as §1

[4] = target: T3, baculovirus-expressed JAK2 (Homo sapiens, UniProt O60674); experiment: JAK2 Kinase Assay (TRF detection); type: biochemical; details: 0.2 μM ATP; average of two or more determinations; class symbols
T3 construct: host or cells: baculovirus expression system
Method: Compounds were tested for their ability to inhibit the kinase activity of baculovirus-expressed JAK2 using the TRF detection system. IC50 runs were conducted in 96-well Costar high binding plates (Corning Costar #3922, Corning, N.Y.). The plates were coated first with 100 μL/well of 10 μg/mL Neutravidin (Pierce #31000, Rockford, Ill.) in TBS at 37° C. for 2 hours, followed by 100 μL/well of 1 μg/mL 15-mer peptide substrate (biotinyl-amino-hexanoyl-EQEDEPEGDYFEWLE-amide, Infinity Biotech Research and Resource, Aston, Pa.) at 37° C. for another hour. The JAK2 assay mixture (total volume=100 μL/well) consisting of 20 mM HEPES, pH 7.2, 0.2 μM ATP, 1 mM MnCl2, 0.1% BSA, and test compound (diluted in DMSO; 2.5% DMSO final in assay) was then added to the assay plate. Enzyme (15 ng/ml JAK2) was added and the reaction was allowed to proceed at room temperature for 20 minutes. Detection of the phosphorylated product was performed by adding 100 μL/well of Eu—N1 labeled PY100 antibody (PerkinElmer Life Sciences #AD0041, Boston, Mass.). Incubation at the room temperature then proceeded for 1 hour, followed by addition of 100 μl enhancement solution (PerkinElmer Life Sciences #1244-105, Boston, Mass.). The plate was gently agitated and after thirty minutes, the fluorescence of the resulting solution was measured using the PerkinElmer EnVision™ 2102 (or 2104) multi-label plate reader.
as §1

[5] = target: T4, baculovirus-expressed ALK (Homo sapiens, UniProt Q9UM73); experiment: ALK Kinase Assay (ELISA/TRF); type: biochemical; details: 1 μM ATP (Km level); average of two or more determinations; class symbols
T4 construct: host or cells: baculovirus expression system
Method: Briefly, each 96-well plate was coated with 100 μL/well of 10 μg/mL substrate (GST-PLC-γ) in Tris-buffered saline (TBS). […] The reaction was initiated by adding enzyme (30 ng/mL ALK) and was allowed to proceed at 37° C. for 15 minutes. Detection of the phosphorylated product was performed by adding 100 μL/well of Eu—N1 labeled PT66 antibody (Perkin Elmer #AD0041). […] Data analysis was performed using ActivityBase (IDBS, Guilford, UK). IC50 values were calculated by plotting percent inhibition versus log10 of the concentration of compound and fitting to the nonlinear regression sigmoidal dose-response (variable slope) equation in XLFit (IDBS, Guilford, UK).

[6] = average of two or more determinations, class symbols

T2 sequence (P06213 980-1382 limits assumed): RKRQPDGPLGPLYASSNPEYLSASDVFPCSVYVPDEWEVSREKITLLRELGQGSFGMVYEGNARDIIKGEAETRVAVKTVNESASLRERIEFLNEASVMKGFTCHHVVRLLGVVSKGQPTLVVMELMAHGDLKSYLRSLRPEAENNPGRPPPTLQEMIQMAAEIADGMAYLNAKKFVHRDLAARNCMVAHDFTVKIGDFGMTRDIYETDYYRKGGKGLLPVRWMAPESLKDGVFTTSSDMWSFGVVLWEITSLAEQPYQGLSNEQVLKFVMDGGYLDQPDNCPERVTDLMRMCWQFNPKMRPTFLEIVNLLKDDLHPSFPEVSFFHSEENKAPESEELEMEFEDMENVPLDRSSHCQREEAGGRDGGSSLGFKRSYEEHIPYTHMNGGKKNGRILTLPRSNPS
T4 sequence (Q9UM73 19-1620): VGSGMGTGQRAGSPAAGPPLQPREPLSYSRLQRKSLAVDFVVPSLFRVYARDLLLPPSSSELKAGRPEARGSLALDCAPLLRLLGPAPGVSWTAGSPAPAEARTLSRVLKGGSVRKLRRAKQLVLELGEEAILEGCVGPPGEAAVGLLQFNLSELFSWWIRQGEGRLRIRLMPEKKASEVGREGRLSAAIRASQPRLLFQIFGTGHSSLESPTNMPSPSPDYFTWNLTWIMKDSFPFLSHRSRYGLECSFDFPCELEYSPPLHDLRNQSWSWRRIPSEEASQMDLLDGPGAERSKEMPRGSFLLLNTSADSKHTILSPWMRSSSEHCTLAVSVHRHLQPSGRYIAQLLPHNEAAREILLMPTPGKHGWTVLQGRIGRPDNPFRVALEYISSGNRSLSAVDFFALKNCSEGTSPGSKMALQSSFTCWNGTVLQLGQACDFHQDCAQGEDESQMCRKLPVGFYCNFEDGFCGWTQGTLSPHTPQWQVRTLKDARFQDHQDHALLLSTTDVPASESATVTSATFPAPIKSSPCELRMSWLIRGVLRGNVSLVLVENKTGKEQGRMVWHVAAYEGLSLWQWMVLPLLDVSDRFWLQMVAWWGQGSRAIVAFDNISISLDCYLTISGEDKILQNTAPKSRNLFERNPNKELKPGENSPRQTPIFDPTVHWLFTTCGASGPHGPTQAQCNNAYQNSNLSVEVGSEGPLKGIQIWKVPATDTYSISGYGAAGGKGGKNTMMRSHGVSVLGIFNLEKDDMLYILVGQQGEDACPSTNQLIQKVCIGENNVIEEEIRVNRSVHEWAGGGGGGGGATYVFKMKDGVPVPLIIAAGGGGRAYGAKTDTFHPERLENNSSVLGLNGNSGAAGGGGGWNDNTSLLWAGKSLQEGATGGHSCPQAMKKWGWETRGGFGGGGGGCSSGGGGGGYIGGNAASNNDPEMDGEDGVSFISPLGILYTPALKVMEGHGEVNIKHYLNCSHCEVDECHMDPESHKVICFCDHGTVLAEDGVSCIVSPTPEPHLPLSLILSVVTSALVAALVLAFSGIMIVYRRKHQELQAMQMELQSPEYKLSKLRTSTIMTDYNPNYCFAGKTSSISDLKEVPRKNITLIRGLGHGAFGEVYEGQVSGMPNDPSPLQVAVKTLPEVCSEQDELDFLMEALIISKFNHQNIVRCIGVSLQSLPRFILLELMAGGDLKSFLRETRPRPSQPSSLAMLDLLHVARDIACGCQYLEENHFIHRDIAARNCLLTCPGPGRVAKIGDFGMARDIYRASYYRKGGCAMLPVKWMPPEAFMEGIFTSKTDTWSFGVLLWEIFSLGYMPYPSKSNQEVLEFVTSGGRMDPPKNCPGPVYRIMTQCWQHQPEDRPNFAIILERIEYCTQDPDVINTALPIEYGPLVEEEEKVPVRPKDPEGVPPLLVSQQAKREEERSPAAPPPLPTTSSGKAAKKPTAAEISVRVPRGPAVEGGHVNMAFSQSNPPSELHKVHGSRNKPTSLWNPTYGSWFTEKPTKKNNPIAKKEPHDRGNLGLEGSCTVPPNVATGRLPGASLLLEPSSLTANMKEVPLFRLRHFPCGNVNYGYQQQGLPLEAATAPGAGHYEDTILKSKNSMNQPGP
T1 sequence (Q05397 whole entry): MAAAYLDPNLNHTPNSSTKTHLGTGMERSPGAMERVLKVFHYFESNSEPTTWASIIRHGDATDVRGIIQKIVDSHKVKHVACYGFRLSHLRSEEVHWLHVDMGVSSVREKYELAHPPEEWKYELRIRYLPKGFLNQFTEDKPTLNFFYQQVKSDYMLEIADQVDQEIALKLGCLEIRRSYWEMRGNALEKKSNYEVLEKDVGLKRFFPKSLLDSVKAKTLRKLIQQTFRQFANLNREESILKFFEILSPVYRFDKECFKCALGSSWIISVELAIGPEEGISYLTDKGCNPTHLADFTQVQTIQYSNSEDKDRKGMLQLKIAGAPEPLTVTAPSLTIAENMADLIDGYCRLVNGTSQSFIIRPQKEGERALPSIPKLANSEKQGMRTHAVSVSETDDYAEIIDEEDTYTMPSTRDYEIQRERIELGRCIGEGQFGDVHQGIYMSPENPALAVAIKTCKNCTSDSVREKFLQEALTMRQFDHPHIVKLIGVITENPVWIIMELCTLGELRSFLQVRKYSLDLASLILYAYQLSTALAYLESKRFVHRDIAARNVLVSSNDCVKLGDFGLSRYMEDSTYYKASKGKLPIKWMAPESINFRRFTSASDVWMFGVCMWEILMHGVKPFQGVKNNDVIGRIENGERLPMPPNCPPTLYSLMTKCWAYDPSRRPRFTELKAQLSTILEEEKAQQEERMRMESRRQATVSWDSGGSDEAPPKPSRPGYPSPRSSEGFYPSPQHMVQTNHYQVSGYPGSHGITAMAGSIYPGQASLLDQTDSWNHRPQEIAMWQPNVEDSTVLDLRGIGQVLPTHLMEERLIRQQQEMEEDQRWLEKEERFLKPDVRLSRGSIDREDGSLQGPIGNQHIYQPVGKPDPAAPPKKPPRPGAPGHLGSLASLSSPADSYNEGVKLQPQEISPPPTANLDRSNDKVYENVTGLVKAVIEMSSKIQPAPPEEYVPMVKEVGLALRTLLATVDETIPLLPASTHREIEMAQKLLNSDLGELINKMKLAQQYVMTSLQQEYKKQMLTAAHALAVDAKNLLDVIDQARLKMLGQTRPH
T3 sequence (O60674 whole entry): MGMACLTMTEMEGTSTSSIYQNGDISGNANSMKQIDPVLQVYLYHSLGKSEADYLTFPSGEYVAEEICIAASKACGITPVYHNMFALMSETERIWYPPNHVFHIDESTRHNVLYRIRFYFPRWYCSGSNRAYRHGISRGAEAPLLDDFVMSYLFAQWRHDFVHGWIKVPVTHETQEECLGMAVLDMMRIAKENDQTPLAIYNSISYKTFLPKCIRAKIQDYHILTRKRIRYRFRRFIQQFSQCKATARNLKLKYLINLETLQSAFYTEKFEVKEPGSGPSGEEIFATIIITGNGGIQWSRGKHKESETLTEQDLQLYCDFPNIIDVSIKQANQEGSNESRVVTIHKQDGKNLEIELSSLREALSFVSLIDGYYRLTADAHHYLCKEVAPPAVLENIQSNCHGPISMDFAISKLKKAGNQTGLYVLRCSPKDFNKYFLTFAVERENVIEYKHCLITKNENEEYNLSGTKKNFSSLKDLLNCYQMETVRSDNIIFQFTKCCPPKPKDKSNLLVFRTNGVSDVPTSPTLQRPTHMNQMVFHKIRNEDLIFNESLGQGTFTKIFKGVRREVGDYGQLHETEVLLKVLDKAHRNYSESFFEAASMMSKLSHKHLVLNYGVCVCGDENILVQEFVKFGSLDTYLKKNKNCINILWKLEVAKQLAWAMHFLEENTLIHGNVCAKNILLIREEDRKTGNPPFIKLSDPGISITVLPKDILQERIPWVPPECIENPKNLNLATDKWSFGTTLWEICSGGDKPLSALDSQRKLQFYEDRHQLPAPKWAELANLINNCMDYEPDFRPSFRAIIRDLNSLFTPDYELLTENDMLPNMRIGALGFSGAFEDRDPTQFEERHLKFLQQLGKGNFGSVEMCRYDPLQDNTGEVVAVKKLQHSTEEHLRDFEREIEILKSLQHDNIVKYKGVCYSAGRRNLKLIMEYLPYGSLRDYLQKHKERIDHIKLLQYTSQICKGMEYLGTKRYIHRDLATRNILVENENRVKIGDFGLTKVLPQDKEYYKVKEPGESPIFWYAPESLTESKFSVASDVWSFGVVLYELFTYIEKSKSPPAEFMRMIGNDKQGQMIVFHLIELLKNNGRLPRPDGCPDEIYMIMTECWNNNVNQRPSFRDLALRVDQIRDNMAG

Structure (SMILES)	ring closure, yield of all isomers ([1]; from C=Cc1ccc(N(C)S(C)(=O)=O)c(Nc2nc(Nc3cc(Br)c(N4CCN(C)CC4)cc3OC)ncc2Cl)c1, Pd(OAc)2 / tri-o-tolylphosphine, Et3N, 46.7 mM, 0.25 h) [%]	IC50 [2, 6] [µM]	IC50 ([2]; given as numeric bound) [µM]	IC50 [3, 6] [µM]	IC50 ([3]; given as numeric bound) [µM]	melting point [°C]	IC50 [4] [µM]	IC50 [5] [µM]	ring closure, yield of all isomers ([1]; from C=Cc1cc(Nc2ncc(Cl)c(Nc3cc(Br)ccc3N(C)S(C)(=O)=O)n2)ccc1N1CCN(C)CC1, Pd(OAc)2 / tri-o-tolylphosphine, Et3N, 65.0 mM, 2.75 h) [%]	ring closure, yield of all isomers ([1]; from C=Cc1cc(Nc2ncc(Cl)c(Nc3cc(Br)ccc3S(=O)(=O)C(C)C)n2)ccc1N1CCN(C)CC1, Pd(OAc)2 / P(o-tolyl)3 / Et3N, 65.0 mM, 2.0 h) [%]
COc1cc(N2CCN(C)CC2)c2cc1Nc1ncc(Cl)c(n1)Nc1cc(ccc1N(C)S(C)(=O)=O)/C=C\2 [Example 4, (14Z)-6-Chloro-10-(2-methanesulfonyl-methyl-amino)-17-(4-methylpiperazin-1-yl)-19-methoxy-2,4,8,22-tetraazatetracyclo[14.3.1.1^3,7.1^9,13]docosa-1(20),3(22),4,6,9(21),10,12,14,16,18-decaene]	72	< 0.01	> 3	1 to 10	> 2	278 to 280				
COc1cc(C2CCN(C)CC2)c2cc1Nc1ncc(Cl)c(n1)Nc1cc(ccc1N(C)S(C)(=O)=O)/C=C\2 [Example 7, (14Z)-6-Chloro-10-(2-methanesulfonyl-methyl-amino)-17-(1-methyl-piperidin-4-yl)-19-methoxy-2,4,8,22-tetraazatetracyclo[14.3.1.1^3,7.1^9,13]docosa-1(20),3(22),4,6,9(21),10,12,14,16,18-decaene]		< 0.01			> 2	244 to 246	1 to 10	0.01 to 0.1		
CN1CCN(c2ccc3cc2/C=C\c2ccc(N(C)S(C)(=O)=O)c(c2)Nc2nc(ncc2Cl)N3)CC1 [Example 9, (14Z)-6-Chloro-10-(2-methanesulfonyl-methyl-amino)-17-(4-methylpiperazin-1-yl)-2,4,8,22-tetraazatetracyclo[14.3.1.1^3,7.1^9,13]docosa-1(20),3(22),4,6,9(21),10,12,14,16,18-decaene Trifluoroacetate (1:1)]		< 0.01			> 2		< 0.01	0.01 to 0.1	37	
CC(C)S(=O)(=O)c1ccc2cc1Nc1nc(ncc1Cl)Nc1ccc(N3CCN(C)CC3)c(c1)/C=C\2 [Example 11, (14Z)-6-Chloro-10-(propane-2-sulfonyl)-17-(4-methylpiperazin-1-yl)-2,4,8,22-tetraazatetracyclo[14.3.1.1^3,7.1^9,13]docosa-1(20),3(22),4,6,9(21),10,12,14,16,18-decaene Trifluoroacetate (1:1)]		0.01 to 0.1		1 to 10			< 0.01	0.01 to 0.1		32
CC(C)S(=O)(=O)c1ccc2cc1Nc1nc(ncc1Cl)Nc1ccc(N3CCN(C)CC3)c(c1)CC2 [Example 12, 6-Chloro-10-(propane-2-sulfonyl)-17-(4-methylpiperazin-1-yl)-2,4,8,22-tetraazatetracyclo[14.3.1.1^3,7.1^9,13]docosa-1(20),3(22),4,6,9(21),10,12,16,18-nonaene]		< 0.01		0.01 to 0.1		> 250	< 0.01			
CN1CCN(c2ccc3cc2CCc2ccc(S(C)(=O)=O)c(c2)Nc2nc(ncc2Cl)N3)CC1 [Example 19, 6-Chloro-10-(methanesulfonyl)-17-(4-methylpiperazin-1-yl)-2,4,8,22-tetraazatetracyclo[14.3.1.1^3,7.1^9,13]docosa-1(20),3(22),4,6,9(21),10,12,16,18-nonaene]		0.01 to 0.1		0.101 to 1		> 250	0.01 to 0.1	0.01 to 0.1		
